The text below walks through data of patent US8697739B2, “Bicyclic acetyl-CoA carboxylase inhibitors and uses thereof” (Novartis AG, priority 2010, dated 2014).

For orientation: IC50 means the concentration needed to halve the response being measured.

T1 sequence (O00763 144-2458): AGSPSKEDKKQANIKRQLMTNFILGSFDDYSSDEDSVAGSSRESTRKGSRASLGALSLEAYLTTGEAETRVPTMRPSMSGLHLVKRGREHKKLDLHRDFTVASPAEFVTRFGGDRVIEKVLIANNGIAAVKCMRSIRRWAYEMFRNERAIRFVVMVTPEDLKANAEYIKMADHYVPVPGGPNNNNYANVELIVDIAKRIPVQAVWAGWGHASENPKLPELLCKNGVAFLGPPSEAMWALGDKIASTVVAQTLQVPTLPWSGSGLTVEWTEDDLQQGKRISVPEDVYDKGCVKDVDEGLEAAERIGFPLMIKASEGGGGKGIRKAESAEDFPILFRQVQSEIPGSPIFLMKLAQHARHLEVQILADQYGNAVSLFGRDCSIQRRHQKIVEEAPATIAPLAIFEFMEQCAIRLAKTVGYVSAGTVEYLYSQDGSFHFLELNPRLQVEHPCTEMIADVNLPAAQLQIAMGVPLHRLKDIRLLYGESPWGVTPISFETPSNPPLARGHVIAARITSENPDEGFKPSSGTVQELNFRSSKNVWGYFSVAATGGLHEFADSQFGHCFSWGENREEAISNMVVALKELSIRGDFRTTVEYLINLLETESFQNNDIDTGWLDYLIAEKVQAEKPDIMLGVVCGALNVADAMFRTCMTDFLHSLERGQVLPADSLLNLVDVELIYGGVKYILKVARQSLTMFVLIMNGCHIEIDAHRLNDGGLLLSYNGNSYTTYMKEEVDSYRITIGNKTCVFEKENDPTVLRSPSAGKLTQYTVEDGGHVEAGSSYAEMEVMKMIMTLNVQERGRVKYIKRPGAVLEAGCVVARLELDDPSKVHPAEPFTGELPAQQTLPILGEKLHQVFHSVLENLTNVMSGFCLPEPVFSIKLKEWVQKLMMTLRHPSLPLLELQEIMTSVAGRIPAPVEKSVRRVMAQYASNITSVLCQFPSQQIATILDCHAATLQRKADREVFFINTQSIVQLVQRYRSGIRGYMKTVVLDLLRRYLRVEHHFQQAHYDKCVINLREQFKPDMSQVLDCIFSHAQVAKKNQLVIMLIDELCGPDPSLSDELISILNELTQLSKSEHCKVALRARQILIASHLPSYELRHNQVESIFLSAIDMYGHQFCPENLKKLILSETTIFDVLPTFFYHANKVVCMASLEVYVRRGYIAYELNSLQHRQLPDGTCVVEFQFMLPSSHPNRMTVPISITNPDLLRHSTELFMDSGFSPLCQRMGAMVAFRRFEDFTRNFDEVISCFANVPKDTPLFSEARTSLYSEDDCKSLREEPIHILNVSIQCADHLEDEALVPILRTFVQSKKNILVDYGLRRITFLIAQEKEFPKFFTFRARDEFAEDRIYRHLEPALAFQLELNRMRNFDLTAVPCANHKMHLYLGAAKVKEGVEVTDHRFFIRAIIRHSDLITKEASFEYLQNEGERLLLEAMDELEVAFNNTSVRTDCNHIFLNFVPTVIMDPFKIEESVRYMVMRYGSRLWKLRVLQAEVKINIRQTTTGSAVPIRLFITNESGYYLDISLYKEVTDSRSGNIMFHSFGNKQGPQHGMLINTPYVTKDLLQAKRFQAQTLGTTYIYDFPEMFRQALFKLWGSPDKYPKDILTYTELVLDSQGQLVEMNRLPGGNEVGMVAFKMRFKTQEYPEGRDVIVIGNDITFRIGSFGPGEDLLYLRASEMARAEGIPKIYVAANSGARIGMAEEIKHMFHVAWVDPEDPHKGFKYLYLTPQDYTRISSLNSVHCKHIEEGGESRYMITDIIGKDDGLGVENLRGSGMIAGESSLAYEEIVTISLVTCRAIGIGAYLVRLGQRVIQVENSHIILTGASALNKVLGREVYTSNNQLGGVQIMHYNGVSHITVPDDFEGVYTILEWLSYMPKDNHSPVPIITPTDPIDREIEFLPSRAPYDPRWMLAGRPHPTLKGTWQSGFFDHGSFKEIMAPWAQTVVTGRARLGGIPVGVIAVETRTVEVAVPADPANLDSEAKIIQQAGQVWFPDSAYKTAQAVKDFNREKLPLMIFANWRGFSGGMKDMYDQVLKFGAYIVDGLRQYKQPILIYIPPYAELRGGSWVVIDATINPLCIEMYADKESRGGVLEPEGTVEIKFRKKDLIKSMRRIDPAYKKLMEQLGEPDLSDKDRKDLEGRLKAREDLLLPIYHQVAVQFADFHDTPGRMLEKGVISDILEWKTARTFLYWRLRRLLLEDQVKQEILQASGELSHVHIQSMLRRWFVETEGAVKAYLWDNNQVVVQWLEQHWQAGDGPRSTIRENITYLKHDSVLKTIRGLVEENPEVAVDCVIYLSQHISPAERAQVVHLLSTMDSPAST

The assay addresses T1, human acetyl-CoA carboxylase 2 (ACC2) (Homo sapiens, UniProt O00763).
T1 construct: The cDNA encoding amino acids 144 to 2458 of human acetyl-CoA carboxylase 2; made in house; host or cells: Sf9 insect cells (baculovirus, pFastBac1)
Description: Acetyl-CoA carboxylase enzyme assay (malonyl-CoA formation by LC/MS/MS). Format: biochemical. Particulars: recombinant human ACC2 (aa 144-2458); read-out: IC50 ACC2. An outline of the steps:
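Malonyl-CoA formation was read by LC/MS/MS MRM against a [13C3]-malonyl-CoA internal standard, after acetic acid quench. The enzyme was baculovirus/Sf9-expressed human ACC2 residues 144–2458, given 15 minutes room-temperature compound preincubation in HEPES pH 7.5 buffer with MgCl2, citrate and DTT. Substrate solution held 50 μM acetyl-CoA, 120 μM ATP and 2 mM KHCO3.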
`Cc1cc(CO)ccc1-c1cc2ccc(S(=O)(=O)N[C@H]3CC[C@H](C(=O)N4CCOCC4)CC3)cc2[nH]1` [Example 308, 2-(4-(hydroxymethyl)-2-methylphenyl)-N-((1r,4r)-4-(morpholine-4-carbonyl)cyclohexyl)-1H-indole-6-sulfonamide]: the IC50 was determined as 60 nM.

For the compound `Cc1cc(CO)ccc1-c1cc2ccc(S(=O)(=O)N[C@H]3CC[C@H](C(=O)N4CCN(C(=O)OC(C)(C)C)C[C@@H]4c4ccccc4)CC3)cc2[nH]1` [Example 309, (S)-tert-butyl 4-((1r,4S)-4-(2-(4-(hydroxymethyl)-2-methylphenyl)-1H-indole-6-sulfonamido)cyclohexanecarbonyl)-3-phenylpiperazine-1-carboxylate], the IC50 is 20 nM. The figure for `Cc1cc(CO)ccc1-c1cc2ccc(S(=O)(=O)N[C@H]3CC[C@H](C(=O)N4CCN(C(=O)OC(C)(C)C)CC4)CC3)cc2[nH]1` [Example 310, tert-butyl 4-((1r,4r)-4-(2-(4-(hydroxymethyl)-2-methylphenyl)-1H-indole-6-sulfonamido)cyclohexanecarbonyl)piperazine-1-carboxylate] is 62 nM; for `Cc1cc(CO)ccc1-c1cc2ccc(S(=O)(=O)N[C@H]3CC[C@H](C(=O)N4CCOCC4c4ccccc4)CC3)cc2[nH]1` (stereo partly drawn) [Example 311, 2-(4-(hydroxymethyl)-2-methylphenyl)-N-((1r,4r)-4-(3-phenylmorpholine-4-carbonyl)cyclohexyl)-1H-indole-6-sulfonamide] it is less than 10 nM. For `Cc1cc(CO)ccc1-c1cc2ccc(S(=O)(=O)N[C@H]3CC[C@H](C(=O)N4CCNCC4)CC3)cc2[nH]1` [Example 312, 2-(4-(hydroxymethyl)-2-methylphenyl)-N-((1r,4r)-4-(piperazine-1-carbonyl)cyclohexyl)-1H-indole-6-sulfonamide] the value was 599 nM; for `Cc1cc(CO)ccc1-c1cc2ccc(S(=O)(=O)N[C@H]3CC[C@H](C(=O)N4CCNC[C@@H]4c4ccccc4)CC3)cc2[nH]1` [Example 313, 2-(4-(hydroxymethyl)-2-methylphenyl)-N-((1S,4r)-4-((S)-2-phenylpiperazine-1-carbonyl)cyclohexyl)-1H-indole-6-sulfonamide], less than 10 nM.

On to `Cc1cc(CO)ccc1-c1cc2ccc(S(=O)(=O)N[C@H]3CC[C@H](C(=O)N4CCCCC4)CC3)cc2[nH]1` [Example 314, 2-(4-(hydroxymethyl)-2-methylphenyl)-N-((1r,4r)-4-(piperidine-1-carbonyl)cyclohexyl)-1H-indole-6-sulfonamide], for which the IC50 came out at 60 nM. The figure for `Cc1cc(CO)ccc1-c1cc2ccc(S(=O)(=O)N[C@H]3CC[C@H](C(=O)N[C@H](C)c4ccc(F)cc4)CC3)cc2n1C` [Example 315, (1r,4R)-N-((R)-1-(4-fluorophenyl)ethyl)-4-(2-(4-(hydroxymethyl)-2-methylphenyl)-1-methyl-1H-indole-6-sulfonamido)cyclohexanecarboxamide] is 20 nM. The figure for `CC(O)Cc1cc2ccc(S(=O)(=O)N[C@H]3CC[C@H](C(=O)N[C@H](C)c4ccc(F)cc4)CC3)cc2[nH]1` (stereo partly drawn) [Example 316, (1r,4R)-N-((R)-1-(4-fluorophenyl)ethyl)-4-(2-(2-hydroxypropyl)-1H-indole-6-sulfonamido)cyclohexanecarboxamide] is 110 nM; for `Cc1cc(CO)ccc1-c1cc2ccc(S(=O)(=O)N[C@H]3CC[C@H](C(=O)N4CCNC(C(F)(F)F)C4)CC3)cc2[nH]1` (stereo partly drawn) [Example 317, 2-(4-(hydroxymethyl)-2-methylphenyl)-N-((1r,4r)-4-(3-(trifluoromethyl)piperazine-1-carbonyl)cyclohexyl)-1H-indole-6-sulfonamide] it is 25 nM; for `Cc1cc(CO)ccc1-c1cc2ccc(S(=O)(=O)N[C@H]3CC[C@H](C(=O)N4CCNC(C(F)(F)F)C4)CC3)cc2n1C` (stereo partly drawn) [Example 318, 2-(4-(hydroxymethyl)-2-methylphenyl)-1-methyl-N-((1r,4r)-4-(3-(trifluoromethyl)piperazine-1-carbonyl)cyclohexyl)-1H-indole-6-sulfonamide] it is 515 nM. For `C[C@@H](NC(=O)[C@H]1CC[C@H](NS(=O)(=O)c2ccc3cc(CCCO)[nH]c3c2)CC1)c1ccc(F)cc1` [Example 319, (1r,4R)-N-((R)-1-(4-fluorophenyl)ethyl)-4-(2-(3-hydroxypropyl)-1H-indole-6-sulfonamido)cyclohexanecarboxamide] the value was 25 nM. With `Cc1ccccc1-c1cc2ccc(S(=O)(=O)N[C@H]3CC[C@H](C(=O)N4CCNC(C(F)(F)F)C4)CC3)cc2[nH]1` (stereo partly drawn) [Example 320, 2-o-tolyl-N-((1r,4r)-4-(3-(trifluoromethyl)piperazine-1-carbonyl)cyclohexyl)-1H-indole-6-sulfonamide], the IC50 came to 85 nM. For `Cc1ccccc1-c1cc2ccc(S(=O)(=O)N[C@H]3CC[C@H](C(=O)N4CCCC(C(F)(F)F)C4)CC3)cc2[nH]1` (stereo partly drawn) [Example 321, 2-o-tolyl-N-((1r,4r)-4-(3-(trifluoromethyl)piperidine-1-carbonyl)cyclohexyl)-1H-indole-6-sulfonamide] the value was 250 nM.

With `Cc1ccccc1-c1cc2ccc(S(=O)(=O)N[C@H]3CC[C@H](C(=O)N4CCN(C(=O)OC(C)(C)C)C[C@@H]4c4ccccc4)CC3)cc2[nH]1` [Example 322, (S)-tert-butyl 3-phenyl-4-((1r,4S)-4-(2-o-tolyl-1H-indole-6-sulfonamido)cyclohexanecarbonyl)piperazine-1-carboxylate], the IC50 was less than 10 nM.

Consider `O=C([C@H]1CC[C@H](NS(=O)(=O)c2ccc3cc(-c4ccccc4)[nH]c3c2)CC1)N1CCNC(C(F)(F)F)C1` (stereo partly drawn) [Example 323, 2-phenyl-N-((1r,4r)-4-(3-(trifluoromethyl)piperazine-1-carbonyl)cyclohexyl)-1H-indole-6-sulfonamide], for which the 50% inhibitory concentration (IC50) stood at 55 nM. The figure for `Cn1c(-c2ccccc2)cc2ccc(S(=O)(=O)N[C@H]3CC[C@H](C(=O)N4CCNC(C(F)(F)F)C4)CC3)cc21` (stereo partly drawn) [Example 324, 1-methyl-2-phenyl-N-((1r,4r)-4-(3-(trifluoromethyl)piperazine-1-carbonyl)cyclohexyl)-1H-indole-6-sulfonamide] is 40 nM. The figure for `Cc1ccccc1-c1cc2ccc(S(=O)(=O)N[C@H]3CC[C@H](C(=O)N4CCNC[C@@H]4c4ccccc4)CC3)cc2[nH]1` [Example 325, N-((1S,4r)-4-((S)-2-phenylpiperazine-1-carbonyl)cyclohexyl)-2-o-tolyl-1H-indole-6-sulfonamide] is less than 10 nM. The figure for `Cc1ccccc1-c1cc2ccc(S(=O)(=O)N[C@H]3CC[C@H](C(=O)N4CCOC[C@@H]4c4ccccc4)CC3)cc2[nH]1` [Example 326, N-((1S,4r)-4-((S)-3-phenylmorpholine-4-carbonyl)cyclohexyl)-2-o-tolyl-1H-indole-6-sulfonamide] is 325 nM; for `Cc1ccccc1-c1cc2ccc(S(=O)(=O)NC3CCC(C(=O)N4CCOCC4c4ccccc4)CC3)cc2[nH]1` [Example 327, N-((1S,4r)-4-((S)-3-phenylmorpholine-4-carbonyl)cyclohexyl)-2-o-tolyl-1H-indole-6-sulfonamide] it is less than 10 nM; for `CC(C)(C)OC(=O)N1CCN(C(=O)[C@H]2CC[C@H](NS(=O)(=O)c3ccc4cc(-c5ccccc5C(F)(F)F)[nH]c4c3)CC2)[C@@H](c2ccccc2)C1` [Example 328, (S)-tert-butyl 3-phenyl-4-((1r,4S)-4-(2-(2-(trifluoromethyl)phenyl)-1H-indole-6-sulfonamido)cyclohexanecarbonyl)piperazine-1-carboxylate] it is 55 nM. Turning to `C[C@@H](NC(=O)[C@H]1CC[C@H](NS(=O)(=O)c2ccc3cc(-c4ccccc4C(F)(F)F)[nH]c3c2)CC1)c1ccc(F)cc1` [Example 329, (1r,4R)-N-((R)-1-(4-fluorophenyl)ethyl)-4-(2-(2-(trifluoromethyl)phenyl)-1H-indole-6-sulfonamido)cyclohexanecarboxamide], the IC50 was 120 nM. Take `O=C([C@H]1CC[C@H](NS(=O)(=O)c2ccc3cc(-c4ccccc4C(F)(F)F)[nH]c3c2)CC1)N1CCCC(C(F)(F)F)C1` (stereo partly drawn) [Example 330, 2-(2-(trifluoromethyl)phenyl)-N-((1r,4r)-4-(3-(trifluoromethyl)piperidine-1-carbonyl)cyclohexyl)-1H-indole-6-sulfonamide]: the IC50 is 3600 nM. Regarding `Cn1c(-c2ccccc2)cc2ccc(S(=O)(=O)N[C@H]3CC[C@H](C(=O)N4CCN[C@H](C(F)(F)F)C4)CC3)cc21` [Example 331, 1-methyl-2-phenyl-N-((1S,4r)-4-((S)-3-(trifluoromethyl)piperazine-1-carbonyl)cyclohexyl)-1H-indole-6-sulfonamide], the IC50 stood at 25 nM.

On to `Cn1c(-c2ccccc2)cc2ccc(S(=O)(=O)N[C@H]3CC[C@H](C(=O)N4CCN[C@@H](C(F)(F)F)C4)CC3)cc21` [Example 332, 1-methyl-2-phenyl-N-((1R,4r)-4-((R)-3-(trifluoromethyl)piperazine-1-carbonyl)cyclohexyl)-1H-indole-6-sulfonamide], for which the IC50 is 25 nM.

In the case of `O=C([C@H]1CC[C@H](NS(=O)(=O)c2ccc3cc(-c4ccccc4C(F)(F)F)[nH]c3c2)CC1)N1CCNC[C@@H]1c1ccccc1` [Example 333, N-((1S,4r)-4-((S)-2-phenylpiperazine-1-carbonyl)cyclohexyl)-2-(2-(trifluoromethyl)phenyl)-1H-indole-6-sulfonamide], the IC50 came out at 65 nM.

Turning to `O=C(C1CCC(NS(=O)(=O)c2ccc3cc(-c4ccccc4C(F)(F)F)[nH]c3c2)CC1)N1CCNC(C(F)(F)F)C1` (stereo not drawn) [Example 334, 2-(2-(trifluoromethyl)phenyl)-N-((1r,4r)-4-(3-(trifluoromethyl)piperazine-1-carbonyl)cyclohexyl)-1H-indole-6-sulfonamide], the IC50 amounted to 1420 nM.
